Data published in patent publication US20190142971A1, “FORMULATION AND DELIVERY OF MODIFIED NUCLEOSIDE, NUCLEOTIDE, AND NUCLEIC ACID COMPOSITIONS” (ModernaTX, Inc., priority 2013, published 2019).

Legend:
Balb-C mice [1] = test: Example 76: modified luciferase mRNA in PBS IM, SC in mice, total flux (Tables 115, 116); format: in vivo; conditions: 2.5 mg/kg, PBS (pH 7.4)
Protocol: The mice were imaged at 2 hours, 8 hours, 24 hours, 48 hours, 72 hours, 96 hours, 120 hours and 144 hours for intramuscular delivery and 2 hours, 8 hours, 24 hours, 48 hours, 72 hours, 96 hours and 120 hours for subcutaneous delivery. Twenty minutes prior to imaging, mice were injected intraperitoneally with a D-luciferin solution at 150 mg/kg. Animals were then anesthetized and images were acquired with an IVIS Lumina II imaging system (Perkin Elmer). Bioluminescence was measured as total flux (photons/second) of the entire mouse. The average total flux (photons/second) for intramuscular administration is shown in Table 115 and the average total flux (photons/second) for subcutaneous administration is shown in Table 116. The background signal was 3.79E+05 (p/s). The peak expression for intramuscular administration was seen between 24 and 48 hours for all chemistry and expression was still detected at 144 hours.

Balb-C mice [2] = test: Example 108: luciferase mRNA IM with electroporation, total flux (Tables 174-176); format: in vivo; conditions: 2.5 mg/kg IM with electroporation
Protocol: The mice of Group 2 were treated with electroporation (EP) using the […]™ instrument (Harvard Apparatus/BTX®, Holliston, Mass.) immediately after administration of luciferase.
[…] Twenty minutes prior to imaging, the mice were injected intraperitoneally with a D-luciferin solution at 150 mg/kg. Animals were then anesthetized and images were acquired with an IVIS Lumina II imaging system (Perkin Elmer). Bioluminescence was measured as total flux (photons/second) of the entire mouse.

Balb-C mice [3] = test: Example 85: lipoplexed luciferase mRNA IV, IM, SC, flux and organ flux (Tables 131, 132); format: in vivo; conditions: 0.10 mg/kg; for Flux (average total flux, entire mouse): Balb-C mice; for Organ Flux, Inj. Site: imaged at 6 hours; for Organ Flux, Kidney / Organ Flux, Liver / Organ Flux, Lung / Organ Flux, Spleen: organs imaged at 6 hours
Protocol: The formulation was administered intravenously (I.V.), intramuscularly (I.M.) or subcutaneously (S.C.) to Balb-C mice at a dose of 0.10 mg/kg.
Twenty minutes prior to imaging, mice were injected intraperitoneally with a D-luciferin solution at 150 mg/kg. Animals were then anesthetized and images were acquired with an IVIS Lumina II imaging system (Perkin Elmer). Bioluminescence was measured as total flux (photons/second) of the entire mouse. The mice were imaged at 8 hours, 24 hours and 48 hours after dosing and the average total flux (photons/second) was measured for each route of administration and chemical modification. The background signal was about 3.91E+05 p/s. Organs were imaged at 6 hours and the average total flux (photons/second) was measured for the liver, spleen, lung and kidney. A control for each organ was also analyzed.

Balb-C mice [4] = test: Example 112: luciferase mRNA electroporation dose response, total flux (Tables 179, 180); conditions: mouse, in vivo
Protocol: The mice undergoing electroporation were subjected to electroporation (EP) using the […]™ instrument (Harvard Apparatus/BTX®, Holliston, Mass.), as outlined in Table 179, immediately after the administration of luciferase or the control.
All of the mice are imaged at 3 hours, 24 hours, 48 hours, 168 hours, 336 hours and 504 hours post-administration of luciferase modified mRNA. Twenty minutes prior to imaging, the mice are injected intraperitoneally with a D-luciferin solution at 150 mg/kg. Animals are then anesthetized and images were acquired with an IVIS Lumina II imaging system (Perkin Elmer). Bioluminescence is measured as total flux (photons/second) of the entire mouse.

Balb-C mice [5] = test: Example 113: FGF21 mRNA IM with or without electroporation, serum FGF21 (Tables 181, 182); format: in vivo; conditions: 5 mg/kg IM
Protocol: The mice undergoing electroporation were subjected to electroporation (EP) using the […]′ instrument (Harvard Apparatus/BTX®, Holliston, Mass.), as outlined in Table 181, immediately after the administration of FGF21 mRNA or the control.
Serum was collected from the mice at 2 hours and 8 hours.

Luciferase modified mRNA: luciferase mRNA, SEQ ID NO: 14, fully modified with 5-methylcytosine and 1-methylpseudouridine, in PBS (pH 7.4)
Flux (Balb-C mice [1]; Intramuscular, 2 hours): 4.65E+06 p/s
Flux (Balb-C mice [1]; Intramuscular, 8 hours): 3.64E+06 p/s
Flux (Balb-C mice [1]; Intramuscular, 24 hours): 1.22E+07 p/s
Flux (Balb-C mice [1]; Intramuscular, 48 hours): 1.01E+07 p/s
Flux (Balb-C mice [1]; Intramuscular, 72 hours): 8.59E+06 p/s
Flux (Balb-C mice [1]; Intramuscular, 96 hours): 2.70E+06 p/s
Flux (Balb-C mice [1]; Intramuscular, 120 hours): 1.60E+06 p/s
Flux (Balb-C mice [1]; Intramuscular, 144 hours): 2.19E+06 p/s
Flux (Balb-C mice [1]; Subcutaneous, 2 hours): 4.54E+06 p/s
Flux (Balb-C mice [1]; Subcutaneous, 8 hours): 8.75E+05 p/s
Flux (Balb-C mice [1]; Subcutaneous, 24 hours): 5.49E+06 p/s
Flux (Balb-C mice [1]; Subcutaneous, 48 hours): 1.77E+06 p/s
Flux (Balb-C mice [1]; Subcutaneous, 72 hours): 8.00E+05 p/s
Flux (Balb-C mice [1]; Subcutaneous, 96 hours): 5.33E+05 p/s
Flux (Balb-C mice [1]; Subcutaneous, 120 hours): 4.09E+05 p/s
expression greater than an order of magnitude above background out to (Balb-C mice [2]): 480 h
Flux (average total flux, entire mouse) (Balb-C mice [3]; I.M., 8 hrs): 2.53E+06 p/s
Flux (average total flux, entire mouse) (Balb-C mice [3]; I.M., 24 hrs): 7.84E+05 p/s
Flux (average total flux, entire mouse) (Balb-C mice [3]; I.M., 48 hrs): 6.59E+05 p/s
Organ Flux, Inj. Site (Balb-C mice [3]; I.M.): 1.20E+06 p/s
Organ Flux, Kidney (Balb-C mice [3]; I.M.): 1.56E+04 p/s
Organ Flux, Liver (Balb-C mice [3]; I.M.): 1.72E+04 p/s
Organ Flux, Lung (Balb-C mice [3]; I.M.): 1.99E+04 p/s
Organ Flux, Spleen (Balb-C mice [3]; I.M.): 1.76E+04 p/s
Flux (average total flux, entire mouse) (Balb-C mice [3]; I.V., 8 hrs): 1.78E+06 p/s
Flux (average total flux, entire mouse) (Balb-C mice [3]; I.V., 24 hrs): 7.13E+05 p/s
Flux (average total flux, entire mouse) (Balb-C mice [3]; I.V., 48 hrs): 3.76E+05 p/s
Organ Flux, Kidney (Balb-C mice [3]; I.V.): 1.77E+04 p/s
Organ Flux, Liver (Balb-C mice [3]; I.V.): 1.48E+05 p/s
Organ Flux, Lung (Balb-C mice [3]; I.V.): 1.93E+06 p/s
Organ Flux, Spleen (Balb-C mice [3]; I.V.): 5.00E+06 p/s
Flux (average total flux, entire mouse) (Balb-C mice [3]; S.C., 8 hrs): 6.48E+06 p/s
Flux (average total flux, entire mouse) (Balb-C mice [3]; S.C., 24 hrs): 7.15E+06 p/s
Flux (average total flux, entire mouse) (Balb-C mice [3]; S.C., 48 hrs): 3.20E+06 p/s
Organ Flux, Inj. Site (Balb-C mice [3]; S.C.): 8.29E+04 p/s
Organ Flux, Kidney (Balb-C mice [3]; S.C.): 1.14E+04 p/s
Organ Flux, Liver (Balb-C mice [3]; S.C.): 1.20E+04 p/s
Organ Flux, Lung (Balb-C mice [3]; S.C.): 1.38E+04 p/s
Organ Flux, Spleen (Balb-C mice [3]; S.C.): 1.46E+04 p/s
protein expression with vs without electroporation (Balb-C mice [4]): increase protein expression

B1: FGF21 modified mRNA: Fibroblast Growth Factor 21 mRNA, SEQ ID NO: 24, 5-methylcytosine and 1-methylpseudouridine, in PBS (nucleic acid)
chain: GGGAAAUAAGAGAGAAAAGAAGAGUAAGAAGAAAUAUAAGAGCCACCAUGGACUCGGACGAGACCGGGUUCGAGCACUCAGGACUGUGGGUUUCUGUGCUGGCUGGUCUUCUGCUGGGAGCCUGCCAGGCACACCCCAUCCCUGACUCCAGUCCUCUCCUGCAAUUCGGGGGCCAAGUCCGGCAGCGGUACCUCUACACAGAUGAUGCCCAGCAGACAGAAGCCCACCUGGAGAUCAGGGAGGAUGGGACGGUGGGGGGCGCUGCUGACCAGAGCCCCGAAAGUCUCCUGCAGCUGAAAGCCUUGAAGCCGGGAGUUAUUCAAAUCUUGGGAGUCAAGACAUCCAGGUUCCUGUGCCAGCGGCCAGAUGGGGCCCUGUAUGGAUCGCUCCACUUUGACCCUGAGGCCUGCAGCUUCCGGGAGCUGCUUCUUGAGGACGGAUACAAUGUUUACCAGUCCGAAGCCCACGGCCUCCCGCUGCACCUGCCAGGGAACAAGUCCCCACACCGGGACCCUGCACCCCGAGGACCAGCUCGCUUCCUGCCACUACCAGGCCUGCCCCCCGCACCCCCGGAGCCACCCGGAAUCCUGGCCCCCCAGCCCCCCGAUGUGGGCUCCUCGGACCCUCUGAGCAUGGUGGGACCUUCCCAGGGCCGAAGCCCCAGCUACGCUUCCUGAUAAUAGGCUGGAGCCUCGGUGGCCAUGCUUCUUGCCCCUUGGGCCUCCCCCCAGCCCCUCCUCCCCUUCCUGCACCCGUACCCCCGUGGUCUUUGAAUAAAGUCUGAGUGGGCGGC
modifications: 5-methylcytosine, 1-methylpseudouridine
protein production with vs without electroporation (Balb-C mice [5]): increase protein production
